Results published in patent US20260226054A1, “CRYSTAL FORM AND AMORPHOUS SUBSTANCE OF INDOLINE SPIRO COMPOUND, AND PREPARATION METHOD THEREFOR AND USE THEREOF” (CHANGCHUN GENESCIENCE PHARMACEUTICAL CO., LTD., priority 2022, published 2026).
Read-outs that look alike come from different tables or passages of the source.

Tests used:
Format in all cases: physicochemical
[1] = Solubility test of amorphous substance (room temperature); settings: read-out: Roughly measured solubility
Method: About 10 mg of amorphous substance was weighted and placed into an 8 mL glass bottle, and a solvent was gradually added at room temperature. 5 μL of solvent was added each time until all the solids were dissolved, and if 8 mL of solvent was added and the solids were not dissolved, the solvent addition was stopped. Table 1. Test results of solubility of amorphous substance of compound represented by Formula (1) (room temperature)

[2] = Dynamic vapor sorption (DVS) hygroscopicity
Method: The sample was analyzed through Intrinsic DVS ([…]). The amount of test sample was about 20-30 mg. The temperature of a test room was controlled between 25±1° C., the relative humidity increased from 0% to 90% and then decreased to 0% at a rate of 10%/h, and mass data was recorded every 20 s.
The DVS curve was acquired from DVS Intrinsic through an SMS (Surface Measurement Systems). The relative humidity at 25° C. was calibrated according to deliquescent points of LiCl, Mg(NO3)2 and KCl.

[3] = Stability Test 1 (80° C., lighting, 25° C./60% RH, 40° C./75% RH; HPLC)
Method: • Chromatographic conditions: • Chromatographic column: C18 column; • Running time: 60 min; • UV detector: 210 nm; • Flow rate: 1.0 mL/min; • Injection volume: 5 μL.
A certain amount of crystals and amorphous raw materials were weighed and placed in liquid phase vials, and a total of 5 parts were prepared. The 5 parts were respectively placed under 80° C. (opened), 25° C./60% RH (opened), and 40° C./75% RH (opened) and in a stable lighting chamber (closed, 5000±500 Lx), and the stability under lighting for 10 days, 80° C. 1 day, and the chemical stability under 25° C. and 60% RH and under 40° C. and 75% RH for 1 week were determined by liquid phase, and the XRPD of the solid was determined.

[4] = 25° C., 60% RH (opened), 1 week
[5] = 40° C., 75% RH (opened), 1 week
[6] = Lighting (closed, 5000±500 Lx), 10 Days

CC(C)C(=O)O[C@@H](C)OC(=O)NC(C)(C)C(=O)N[C@H](COCc1ccccc1)C(=O)N1CCC2(CC1)CN(S(C)(=O)=O)c1ccccc12 [amorphous substance, (4R,11R)-7,7-dimethyl-4-(1-(methylsulfonyl)spiro[indoldoline-3,4′-piperidine]-1′-carbonyl)-6,9-dioxo-1-phenyl-2,10-dioxa-5,8-diazadodecane-11-ylisobutyrate]
solubility ([1]; organic solvent or mixture, thermodynamic from solid, 1,4-Dioxane): > 760 mg/mL
solubility ([1]; organic solvent or mixture, thermodynamic from solid, Acetone): > 520 mg/mL
solubility ([1]; organic solvent or mixture, thermodynamic from solid, Acetonitrile): > 587 mg/mL
solubility ([1]; organic solvent or mixture, thermodynamic from solid, Anisole): > 510 mg/mL
solubility ([1]; organic solvent or mixture, thermodynamic from solid, Butanone): > 700 mg/mL
solubility ([1]; organic solvent or mixture, thermodynamic from solid, Cyclohexane): < 1.2 mg/mL
solubility ([1]; organic solvent or mixture, thermodynamic from solid, Dichloromethane): > 798 mg/mL
solubility ([1]; organic solvent or mixture, thermodynamic from solid, Dimethyl sulfoxide): > 450 mg/mL
solubility ([1]; organic solvent or mixture, thermodynamic from solid, Ethanol): > 480 mg/mL
solubility ([1]; organic solvent or mixture, thermodynamic from solid, Ethyl acetate): > 600 mg/mL
solubility ([1]; organic solvent or mixture, thermodynamic from solid, Ethyl formate): > 405 mg/mL
solubility ([1]; organic solvent or mixture, thermodynamic from solid, Isopropanol): > 432 mg/mL
solubility ([1]; organic solvent or mixture, thermodynamic from solid, Isopropyl acetate): > 643 mg/mL
solubility ([1]; organic solvent or mixture, thermodynamic from solid, Methanol): > 725 mg/mL
solubility ([1]; organic solvent or mixture, thermodynamic from solid, Methyl isobutyl ketone): > 400 mg/mL
solubility ([1]; organic solvent or mixture, thermodynamic from solid, Methyl tert-butyl ether): > 70 mg/mL
solubility ([1]; organic solvent or mixture, thermodynamic from solid, N-heptane): < 1.3 mg/mL
solubility ([1]; organic solvent or mixture, thermodynamic from solid, N-hexane): < 1.2 mg/mL
solubility ([1]; organic solvent or mixture, thermodynamic from solid, N-propanol): > 460 mg/mL
solubility ([1]; organic solvent or mixture, thermodynamic from solid, Tetrahydrofuran): > 553 mg/mL
solubility ([1]; organic solvent or mixture, thermodynamic from solid, Toluene): > 473 mg/mL
solubility ([1]; thermodynamic from solid, Water): < 1.3 mg/mL
Hygroscopicity (DVS) ([2]; 80% humidity, 25° C.): slightly hygroscopic
Solid form by XRPD before and after DVS test ([2]; XRPD before vs after DVS): the morphology of the solid did not change
Degradation (%) [3, 4]: 0.01%
Purity (%) [3, 4]: 99.27%
Degradation (%) [3, 5]: 0.03%
Purity (%) [3, 5]: 99.25%
Degradation (%) ([3]; 80° C. (opened), 1 Day): 0.18%
Purity (%) ([3]; 80° C. (opened), 1 Day): 99.10%
Purity (%) ([3]; Initial): 99.28%
Degradation (%) [3, 6]: 1.02%
Purity (%) [3, 6]: 98.26%
